# Experimental data published in patent publication US20190365673A1, “Immunomodulatory Compounds” (Lankenau Institute for Medical Research, priority 2016, published 2019).
# pIC50: −log10 of the molar value. Read-outs that look alike come from different tables or passages of the source.
# What was measured:
# WM983B melanoma cells = experiment: Cell viability assay (EZQuant), WM983B; format: cell-based; settings: Homo sapiens, AP alone, 72 h
# Procedure: (§1) Cell proliferation assays were conducted in 96-well plates at 25-30% starting confluence to determine the effect of exposure to increasing concentrations of PLX4720 or AP with or without 1 mM DFMO for 72 hours. Cell viability was assessed using the EZQuant™ Cell Quantifying Kit (Alstem) in which WST-8 is reduced by the metabolic activity of live cells to formazan dye. […] The 72 hour IC50 values for AP were calculated using non-linear regression (sigmoidal dose response) of the plot of percentage inhibition versus the log of inhibitor concentration in GraphPad Prism (v5; GraphPad Software, Inc., La Jolla, Calif.).
# [1] = tested on: CXCR4^+ RAW247.6 macrophage cells; experiment: In vitro chemotaxis assay, SDF-1 stimulated migration; format: cell-based
# Procedure: The ability to inhibit stromal cell-derived factor 1 (SDF-1) stimulated migration of macrophage was also tested in an in vitro chemotaxis assay. Specifically, CXCR4^+ RAW247.6 macrophage cells were treated with SDF-1α alone or with AMD3100, a specific CXCR4 antagonist which inhibits cell migration and phosphorylation of ERK1/2 by SDF-1, or AP (Formula (II)).
# [2] = tested on: polyamine transport system (PTS); experiment: Radiolabeled spermidine transport assay, human melanoma cell lines; format: cell-based; settings: ± SD
# Procedure: Polyamine transport in tumor cells was evaluated essentially as described (Kramer, et al. (1993) J. Cell Physiol., 155(2):399-407; Nilsson, et al. (2005) Cancer Cell 7(5):433-444). Radioactive spermidine (Net-522 Spermidine Trihydrochloride, [Terminal Methylenes-^3H(n)]) from Perkin Elmer was used (specific activity: 16.6 Ci/mmol). Cells were plated in 96 well plates and grown to approximately 80% confluence. Half of the cells were treated with 1 mM DFMO for 40 hours. After repeated washing with PBS, ^3H-spermidine was added at 1 μM and incubated for 60 minutes at 37° C. Cells were then washed with cold PBS containing 50 μM spermidine and lysed in 0.1% SDS at 37° C. for 30 minutes with mixing. Cell lysates were then aliquoted for scintillation counting and for protein assay using a mini-BioRad assay. Results were expressed as CPM/g protein.
# [3] = tested on: BRAF^V600E YUMM1.7 melanoma cells; experiment: Cell viability assay (EZQuant), YUMM1.7; format: cell-based, murine; settings: FIGS. 9A, 9B, 72 h
# Procedure: FIG. 9A: Murine BRAF^V600E YUMM1.7 melanoma cells and BRAF^WT B16F10 melanoma cells were treated with increasing doses of AP. After 72 hours of culture, cell survival was determined via EZQuant™ Cell Quantifying assay. IC50 values were calculated by GraphPad Prism 6. FIG. 9B: Murine BRAF^V600E YUMM1.7 melanoma cells and BRAF^WT B16F10 melanoma cells were treated with increasing doses of AP±1 mM DFMO or with PLX4720. After 72 hours of culture, cell survival was determined via EZQuant™ Cell Quantifying assay. IC50 values were calculated by GraphPad Prism 6. […] Cells were washed with cold PBS containing 50 μM spermidine, and cell lysates were assayed for CPM ^3H-spermidine per mg protein by scintillation counting.
# 1205Lu melanoma cells = experiment: Cell viability assay (EZQuant), 1205Lu; format: cell-based; settings: Homo sapiens, AP alone, 72 h, BRAF V600E
# Procedure: as §1
structure (smiles),measurement,setting,value
CNCNCNCc1ccc(CNCNCNC)c2ccccc12 [AP],IC50,"WM983B melanoma cells; BRAF V600E, read-out: IC50 (μM AP)",2.6 µM
same,pIC50,"WM983B melanoma cells; FIG. 8C, read-out: IC50",5.64
same,SDF-1-stimulated migration of CXCR4+ macrophages,[1]; FIG. 13,inhibits
same,viability of the macrophages,[1]; in the chemotaxis assay,without affecting the viability
same,PTS Activity (cpm ^3H Spd/μg Protein),"[2]; 1205Lu, column group AP (without DFMO)",230 ± 22 cpm ^3H Spd/μg Protein
same,PTS Activity (cpm ^3H Spd/μg Protein),"[2]; WM88, column group AP (without DFMO)",302 ± 18 cpm ^3H Spd/μg Protein
same,PTS Activity (cpm ^3H Spd/μg Protein),"[2]; WM983B, column group AP (without DFMO)",487 ± 64 cpm ^3H Spd/μg Protein
same,PTS Activity (cpm ^3H Spd/μg Protein),"[2]; WM989, column group AP (without DFMO)",304 ± 28 cpm ^3H Spd/μg Protein
same,PTS Activity (cpm ^3H Spd/μg Protein),"[2]; WM3211, column group AP (without DFMO)",278 ± 58 cpm ^3H Spd/μg Protein
same,PTS Activity (cpm ^3H Spd/μg Protein),"[2]; WM3451, column group AP (without DFMO)",130 ± 21 cpm ^3H Spd/μg Protein
same,PTS Activity (cpm ^3H Spd/μg Protein),"[2]; WM3734, column group AP (without DFMO)",444 ± 46 cpm ^3H Spd/μg Protein
same,PTS Activity (cpm ^3H Spd/μg Protein),"[2]; WM3743, column group AP (without DFMO)",117 ± 23 cpm ^3H Spd/μg Protein
same,sensitivity to AP (IC50 compared to BRAF WT B16F10 cells),[3],significantly more sensitive
same,IC50,1205Lu melanoma cells,0.7 µM
